Data on 1 compound can be found in patent US5932555A (priority 1997, dated 1999).

In data set [1] the test system is P388. As to the kind of experiment: Cytotoxicity test on cultured tumor cell line P388 (MTT, 72 h). It counts as cell-based. On the procedure: Cultured tumor cell lines P388 and P388/ADR were suspended in RPMI1640 medium containing 10% heat inactivated fetal calf serum (FCS) and 20 μM 2-mercaptoethanol whereby a cell suspension (5×10^4 cells/ml) was prepared.
72 hours thereafter, cell growth was measured by a calorimetric assay method using 3-(4,5-dimethyl-2-thiazolyl)-2,5-diphenyl-2H-tetrazolium bromide (MTT) as follows: 20 μl of 2 mg/ml MTT solution was added to each well and the cells were incubated for 4 hours at 37° C. Thereafter, 50 μl of 50% dimethylformamide solution containing 20% sodium dodecyl sulfate was added to each well and allowed to stand, so that the formed violet formazan crystal was dissolved, and its absorbance at 570 nm was measured in a microplate absorbance photometer (Immunoreader) and used as an indicator of the growth.
Degree of inhibition=[1-(absorbance in presence of sample)/(absorbance in
absence of sample)]×100 (1)

Data set [2] has as its system P388. The data set is described as follows: Mouse in vivo antitumor test, P388 transplanted. The protocol: 2×10^5 cells of P388 or P388/ADR were inoculated intraperitoneally into each of CDF1 mice (male, each weighing 20 g, 10 animals/group), and from the next day, the test solution was administered at 10, 5, and 1 mg/kg body weight/day respectively by intraperitoneal injection of 200 μl sample at each concentration once a day for 10 successive days. The numbers with time of mice which survived after administration was counted and the average survival days and T/C (survival days of treated mice/survival days of control mice) were calculated. The average body weights after 10 days were also measured.

Data set [3] has as its system blastgenesis of lymphocytes. The data set is described as follows: Mouse allogenic mixed lymphocyte reaction (MLR), inhibition of blastgenesis ([3H]-thymidine incorporation). Format: cell-based, mouse (C57BL/6 responder, BALB/C stimulator). Particulars: 96 h. The protocol:
The mouse allogenic mixed lymphocyte reaction for assay was carried out according to the method of Hatanaka et al. (Hatanaka et al., J. Antibiotics, 41, 1592-1601 (1988)). That is, spleen cells from C57BL/6 mouse (H-2^b) as responder cells were mixed with spleen cells from BALB/C mouse (H-2^d) treated with mitomycin C as stimulator cells, and then cultured.
Preparation of the responder cells was carried out in the following manner:
The spleen was removed from a 5- to 6-week-old C57BL/6 mouse, then homogenized in 20 ml ice-cold RPMI 1640 medium supplemented with 10% heat inactivated fetal calf serum (FCS), and filtered through a gauze to give a single cell suspension. The cells were recovered by centrifugation, suspended in 4 ml PRMI 1640 medium, followed by adding 6 ml solution (pH 7.2) containing 0.15 M ammonium chloride, 1 mM sodium hydrogen carbonate and 0.1 mM tetrasodium ethylenediaminetetraacetate, and the mixture was incubated at 0° C. for 1 minute to remove the contaminating erythrocytes. […]
90 μl of the responder cell suspension, 90 μl of the stimulator cell suspension and 20 μl of sample were added to a 96-well microplate and incubated at 37° C. in wet 5% CO2 /95% air for 96 hours. […] The radioactivity of a filter disk corresponding to each well was determined using liquid scintillation counter (beta-counter).

Another data set in a line: Solubility. Format: physicochemical.
The mark [4] stands for this setting: P388, 1 mg/kg/day i.p. × 10 days.
The mark [5] stands for this setting: P388, 5 mg/kg/day i.p. × 10 days.
Setting [6] is: P388, 10 mg/kg/day i.p. × 10 days.

Converted amounts (≈) assume the structure as drawn.

For the compound `COC(CC1C(C)=CCC2C1(C)CCC1C(C)(C)C(O)C(OC3OC(C)C(OC(=O)c4cccc(O)c4)C(OC4OC(CO)C(O)C(O)C4NC(C)=O)C3O)CC12C)C(N)C(=O)O` (centres unmarked) [0406TP-1], the half-inhibitory concentration (IC50) with P388 [1] (Mus musculus, P388, 72 h, MTT, read-out: IC50 (growth inhibition)) was 0.65 µg/mL (≈ 0.728 µM); in data set [3], 0.11 µg/mL (≈ 0.123 µM). The “cytotoxicity (antitumor activity) on cultured tumor cells” value with P388 [1] (in words) is listed as “strong cytotoxicity”. The T/C in the data set with P388 [2] (setting [4]) is reported as 123%; in the data set on P388 [2] (setting [5]), 123%; in the data set with P388 [2] (setting [6]) it was 128%. Moreover, the “average body weight after 10 days” value was determined as 25.9 g in the data set on P388 [2] (setting [4]), 26.3 g in the data set on P388 [2] (setting [5]) and 27.3 g in the data set on P388 [2] (setting [6]). The average survival days came out at 12.7 days in the data set with P388 [2] (setting [4]), 12.7 days in the data set with P388 [2] (setting [5]) and 13.2 days in the data set on P388 [2] (setting [6]). Also, in the data set with P388 [2] (P388-transplanted mice, adriamycin 1 mg/kg/day vs 0406TP-1), the “therapeutic effect (improvement in survival rate)” value is “same degree of therapeutic effect”. Also, the Solubility result in the data set “Solubility” (acetone) is on record as “Insoluble”; in the data set “Solubility” (chloroform), “Insoluble”; in the data set “Solubility” (ethanol) it was “Soluble”; in “Solubility” (ether) it was “Insoluble”; in the data set “Solubility” (ethyl acetate) it was “Insoluble”; in “Solubility” (methanol), “Soluble”. Besides, in “Solubility” (water), the Solubility entry is recorded as “Soluble”.
